“Also recorded” adds a separate entry of the source. Like-named read-outs stand apart in the source and are kept apart here.

For data set [1], the target named is T1, human CB1 receptor (Homo sapiens, UniProt P21554).
T1 construct: HA (hemagglutinin); expressed in transfected cells; host or cells: HEK 293 FlpIn cells with GIRK4 expression, stably transfected (pcDNA5/FRT + pOG44)
Format: cell-based.

The test system of a further data set is HEK 293 wild‐type cells. Kind of data set: FSK-stimulated cAMP accumulation in HEK 293 wild-type cells (not containing CB1 receptors). The data set is classed as cell-based, human. The settings on record: 10 µmol L^−1, HEK 293 wild-type cells.
Data set [2] relates to CB1. Also on record: method as in PMID 29408093. The conditions noted are these: HEK cells transiently expressing CB1; cited from earlier work.
Data set [3] deals with CB1. The arrangement: method as in PMID 30925348, PMID 26795398, PMID 29042214, PMID 28874764, PMID 25769232. The settings on record: mice; cited from earlier work.
The target in data set [4] is T1, human CB1 receptor. The data set is classed as cell-based. The source holds these as a separate data set.
The mark [5] stands for this setting: read-out: G i (‐PTX) EC50 (converted).
The mark [6] stands for this setting: read-out: Gs (+PTX) EC50 (converted).
The mark [7] stands for this setting: read-out: G s (+PTX) EC50 (converted).

T1 sequence (P21554 whole entry): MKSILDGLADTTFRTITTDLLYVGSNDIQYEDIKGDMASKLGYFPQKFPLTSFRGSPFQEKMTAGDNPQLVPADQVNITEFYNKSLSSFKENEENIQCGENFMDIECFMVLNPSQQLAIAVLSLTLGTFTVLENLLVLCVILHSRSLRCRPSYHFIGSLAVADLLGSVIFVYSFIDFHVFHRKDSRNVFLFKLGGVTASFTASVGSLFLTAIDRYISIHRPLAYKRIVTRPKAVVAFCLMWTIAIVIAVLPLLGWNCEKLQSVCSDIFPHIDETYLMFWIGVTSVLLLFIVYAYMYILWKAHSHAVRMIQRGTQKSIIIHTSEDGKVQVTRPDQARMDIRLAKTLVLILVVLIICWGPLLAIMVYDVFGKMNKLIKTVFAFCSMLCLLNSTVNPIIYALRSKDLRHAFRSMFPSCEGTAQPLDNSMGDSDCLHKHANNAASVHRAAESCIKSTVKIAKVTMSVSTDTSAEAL

In the case of `CC(C)[C@H](NC(=O)c1nn(CC2CCCCC2)c2ccccc12)C(N)=O`, on human CB1 receptor [1], the “effect of SR141716A pretreatment on SCRA-mediated stimulation of FSK-induced cAMP response” value (“effect … of FSK-induced cAMP response” for short) is listed as “only partially inhibited; also recorded: not significantly different” and the “increase in cAMP levels above that of FSK alone” value amounted to 86 ± 21%. Moreover, the “increase in FSK‐stimulated cAMP accumulation” value with HEK 293 wild‐type cells is reported as 29 ± 10%. In addition, in the data set with CB1 [2], the “effect on cAMP levels in absence and presence of forskolin” value is “elevation in cAMP levels”.

Consider `CC(C)[C@H](NC(=O)c1nn(CCCCCF)c2ccccc12)C(N)=O` [5F‐AB‐PINACA], for which the “induced seizures, mechanism” value in the data set with CB1 [3] is on record as “CB1‐mediated”.

On to `CCCCCCC(C)(C)c1ccc([C@@H]2C[C@H](O)CC[C@H]2CCCO)c(O)c1` [CP55940, reference compound], for which the “increase in cAMP levels above that produced by FSK alone” value (from here on “increase … by FSK alone”) at human CB1 receptor [1] was 19%.

The term EC50 denotes the concentration at which the effect is half-maximal. With `CC(C)[C@H](NC(=O)c1nn(Cc2ccc(F)cc2)c2ccccc12)C(N)=O` [AB‐FUBINACA], on human CB1 receptor [4], the “G i (‐PTX) E max (% FSK)” value amounted to 61 ± 2 % FSK, the “G i (‐PTX) pEC50” value is recorded as 9.0 ± 0.2 (0.96), the “Gi (-PTX) selectivity” value came to 348 and the “effect of SR141716A pretreatment on SCRA-induced inhibition of cAMP signaling” value is listed as “blocked”. For the same compound, on human CB1 receptor [4] (setting [5]), the EC50 is 0.00096 µM. Also, at human CB1 receptor [4] (read-out: Gi (-PTX) EC50 (converted)), the EC50 is 0.0011 µM. Also, at human CB1 receptor [1], the “G s (+PTX) E max (% FSK)” value amounted to 144 ± 12 % FSK, the “effect … of FSK-induced cAMP response” value is “inhibited”, the “effect on cAMP relative to CP55940” value is “up to 2.5 times” and the “increase … by FSK alone” value was “more than 30%”. The half-maximal effective concentration (EC50) at human CB1 receptor [1] (setting [6]) is 0.383 µM.

For `O=C(c1cccc2ccccc12)c1cn(CCCCCF)c2ccccc12` [AM‐2201], in the data set with CB1 [3], the “induced seizures, mechanism” value is on record as “CB1‐mediated”.

Take `CC1(C)C(C(=O)c2cn(CCCCCF)c3ccccc23)C1(C)C` [XLR‐11]: on human CB1 receptor [4], the “G i (‐PTX) E max (% FSK)” value turned out to be 63 ± 2 % FSK, the “G i (‐PTX) pEC50” value was 7.2 ± 0.2 (63), the “G i (−PTX) selectivity” value worked out at 75 and the “Gi (-PTX) selectivity” value was 103. For the same compound, at human CB1 receptor [4] (setting [5]), the EC50 was 0.063 µM. Moreover, at human CB1 receptor [1], the “G s (+PTX) E max (% FSK)” value is 124 ± 5 % FSK, the “G s (+PTX) pEC50” value was 5.3 ± 0.8 (4720) and the “Gs (+PTX) pEC50” value was 5.2 ± 0.8 (6490). Moreover, on human CB1 receptor [1] (setting [7]), the EC50 is 4.72 µM. For the same compound, the EC50 at human CB1 receptor [1] (setting [6]) is 6.49 µM.

As to `CC(C)(NC(=O)c1nn(CCCCC#N)c2ccccc12)c1ccccc1` [CUMYL‐4CN‐BINACA, reference compound], the “induced seizures, mechanism” value in the data set on CB1 [3] is listed as “CB1‐mediated”.

As for `COC(=O)[C@@H](NC(=O)c1cn(CCCCCF)c2ccccc12)C(C)(C)C` [5F‐MDMB‐PICA], at human CB1 receptor [4], the “G i (‐PTX) E max (% FSK)” value was 60 ± 4 % FSK, the “G i (‐PTX) pEC50” value is 9.2 ± 0.2 (0.62), the “G i (−PTX) selectivity” value came out at 137 and the “effect of SR141716A pretreatment on SCRA-induced inhibition of cAMP signaling” value is “blocked”. The EC50 at human CB1 receptor [4] (setting [5]) is 0.00062 µM. Besides, at human CB1 receptor [1], the “G s (+PTX) E max (% FSK)” value worked out at 126 ± 5 % FSK, the “G s (+PTX) pEC50” value was 7.1 ± 0.4 (85) and the “effect … of FSK-induced cAMP response” value was “inhibited”. In addition, the EC50 at human CB1 receptor [1] (setting [7]) is 0.085 µM.

Regarding `CCCCC/C=C\C/C=C\C/C=C\C/C=C\CCCC(=O)OC(CO)CO` [2‐AG, 2‐arachidonoyl glycerol, reference compound], at human CB1 receptor [1], the “effect on cAMP relative to CP55940” value was “approximately twice that of CP55940”.

As for `CCCCCn1nc(C(=O)N[C@H](C(N)=O)C(C)C)c2ccccc21` [AB‐PINACA], at human CB1 receptor [1], the “increase … by FSK alone” value is reported as “more than 30%”.

With `CCCCCn1cc(C(=O)c2cccc3ccccc23)c2ccccc21` [JWH‐018], at human CB1 receptor [4], the “G i (‐PTX) pEC50” value is given as 7.8 ± 0.2 (16), the “G i (−PTX) selectivity” value came to 18, the “Gi (-PTX) selectivity” value came to 14 and the “effect of SR141716A pretreatment on SCRA-induced inhibition of cAMP signaling” value is “blocked”. Besides, the EC50 at human CB1 receptor [4] (setting [5]) was 0.016 µM. On human CB1 receptor [1], the “G s (+PTX) E max (% FSK)” value worked out at 114 ± 4 % FSK, the “G s (+PTX) pEC50” value was 6.5 ± 0.7 (288), the “Gs (+PTX) pEC50” value is listed as 6.7 ± 0.7 (221) and the “activation of Gαs pathway (increase over FSK alone)” value is on record as 14%. In addition, the “effect … of FSK-induced cAMP response” value on human CB1 receptor [1] is on record as “inhibited”. Also, the EC50 at human CB1 receptor [1] (setting [7]) was 0.288 µM. The EC50 on human CB1 receptor [1] (setting [6]) is 0.221 µM. Besides, the “induced seizures, mechanism” value in the data set on CB1 [3] is on record as “CB1‐mediated”.

Regarding `CCCCCn1cc(C(=O)Oc2cccc3cccnc23)c2ccccc21` [PB‐22], on human CB1 receptor [4], the “G i (‐PTX) E max (% FSK)” value amounted to 64 ± 3 % FSK, the “G i (‐PTX) pEC50” value was 8.6 ± 0.2 (2.5) and the “G i (−PTX) selectivity” value was found to be 28. Also, the EC50 on human CB1 receptor [4] (setting [5]) is 0.0025 µM. Also, at human CB1 receptor [1], the “G s (+PTX) E max (% FSK)” value turned out to be 130 ± 3 % FSK, the “G s (+PTX) pEC50” value is listed as 7.2 ± 0.5 (69) and the “increase … by FSK alone” value was “more than 30%”. The EC50 on human CB1 receptor [1] (setting [7]) is 0.069 µM.

These data come from PMC7043210, “Differential activation of G protein‐mediated signaling by synthetic cannabinoid receptor agonists” (Pharmacology Research & Perspectives, 2020).
